Measurements: patent US20230123334A1, “AMINO LIPID COMPOUND, PREPARATION METHOD THEREFOR, AND APPLICATION THEREOF” (SHENZHEN SHENXIN BIOTECHNOLOGY CO., LTD., priority 2020, published 2023)

system: HEK293 cells; experiment: Preliminary screening as mRNA vectors, EGFP mRNA transfection of HEK293 cells; format: cell-based; conditions: EGFP mRNA 50 ng per well, 96-well plates; percentage of GFP fluorescent cells relative to total number of cells (Hoechst)
Procedure, shortened: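 HEK293 cells in DMEM plus 10% FBS transfected in 96-well format with 50 ng EGFP mRNA per well; Lipofectamine2000 served as positive control. Read-out is the percentage of GFP-fluorescent cells among total cells, counted by Hoechst nuclear stain.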

Compound	Absolute mRNA transfection efficiency in HEK293 cells [%]
CCCCCCCCCCCCCCCCCCSc1nc(NCCCCCCCCCCCCCCCC)nc(NCCCN(C)C)n1 [Compound D6S18N16]	0.0
CCCCCCCCCCCCCCCCCCNc1nc(NCCCN(C)C)nc(SCCCCCCCCCCCCCCCCCC)n1 [Compound D6S18N18]	0.0
CCCCCCNc1nc(NCCN(CC)CC)nc(SCCCCCC)n1 [Compound D7S6N6]	1.2
CCCCCCCNc1nc(NCCN(CC)CC)nc(SCCCCCC)n1 [Compound D7S6N7]	0.0
CCCCCCCCNc1nc(NCCN(CC)CC)nc(SCCCCCC)n1 [Compound D7S6N8]	3.5
CCCCCCCCCNc1nc(NCCN(CC)CC)nc(SCCCCCC)n1 [Compound D7S6N9]	2.4
CCCCCCCCCCCNc1nc(NCCN(CC)CC)nc(SCCCCCC)n1 [Compound D7S6N11]	3.8
CCCCCCCCCCCCNc1nc(NCCN(CC)CC)nc(SCCCCCC)n1 [Compound D7S6N12]	1.4
CCCCCCCCCCCCCNc1nc(NCCN(CC)CC)nc(SCCCCCC)n1 [Compound D7S6N13]	2.6
CCCCCCCCCCCCCCCNc1nc(NCCN(CC)CC)nc(SCCCCCC)n1 [Compound D7S6N15]	2.2
CCCCCCCCCCCCCCCCNc1nc(NCCN(CC)CC)nc(SCCCCCC)n1 [Compound D7S6N16]	3.0
CCCCCCCCCCCCCCCCCCNc1nc(NCCN(CC)CC)nc(SCCCCCC)n1 [Compound D7S6N18]	4.6
CCCCCCSc1nc(NCCN(CC)CC)nc(SCCCCCC)n1 [Compound D7S6S6]	19.5
CCCCCCCSc1nc(NCCN(CC)CC)nc(SCCCCCC)n1 [Compound D7S6S7]	22.9
CCCCCCCCSc1nc(NCCN(CC)CC)nc(SCCCCCC)n1 [Compound D7S6S8]	18.9
CCCCCCCCCSc1nc(NCCN(CC)CC)nc(SCCCCCC)n1 [Compound D7S6S9]	4.2
CCCCCCCCCCSc1nc(NCCN(CC)CC)nc(SCCCCCC)n1 [Compound D7S6S10]	2.7
CCCCCCCCCCCSc1nc(NCCN(CC)CC)nc(SCCCCCC)n1 [Compound D7S6S11]	0.5
CCCCCCCCCCCCSc1nc(NCCN(CC)CC)nc(SCCCCCC)n1 [Compound D7S6S12]	8.1
CCCCCCCCCCCCCCSc1nc(NCCN(CC)CC)nc(SCCCCCC)n1 [Compound D7S6S14]	3.8
CCCCCCCCCCCCCCCSc1nc(NCCN(CC)CC)nc(SCCCCCC)n1 [Compound D7S6S15]	1.3
CCCCCCCCCCCCCCCCSc1nc(NCCN(CC)CC)nc(SCCCCCC)n1 [Compound D7S6S16]	2.3
CCCCCCCCCCCCCCCCCCSc1nc(NCCN(CC)CC)nc(SCCCCCC)n1 [Compound D7S6S18]	9.5
CCCCCCCSc1nc(NCCCCCC)nc(NCCN(CC)CC)n1 [Compound D7S7N6]	2.3

Compound	Absolute mRNA transfection efficiency in HEK293 cells [%]
CCCCCCCNc1nc(NCCN(CC)CC)nc(SCCCCCCC)n1 [Compound D7S7N7]	3.9
CCCCCCCCNc1nc(NCCN(CC)CC)nc(SCCCCCCC)n1 [Compound D7S7N8]	3.5
CCCCCCCCCNc1nc(NCCN(CC)CC)nc(SCCCCCCC)n1 [Compound D7S7N9]	10.5
CCCCCCCCCCCNc1nc(NCCN(CC)CC)nc(SCCCCCCC)n1 [Compound D7S7N11]	11.1
CCCCCCCCCCCCNc1nc(NCCN(CC)CC)nc(SCCCCCCC)n1 [Compound D7S7N12]	3.6
CCCCCCCCCCCCCNc1nc(NCCN(CC)CC)nc(SCCCCCCC)n1 [Compound D7S7N13]	1.2
CCCCCCCCCCCCCCCNc1nc(NCCN(CC)CC)nc(SCCCCCCC)n1 [Compound D7S7N15]	18.5
CCCCCCCCCCCCCCCCNc1nc(NCCN(CC)CC)nc(SCCCCCCC)n1 [Compound D7S7N16]	12.8
CCCCCCCCCCCCCCCCCCNc1nc(NCCN(CC)CC)nc(SCCCCCCC)n1 [Compound D7S7N18]	16.7
CCCCCCCSc1nc(NCCN(CC)CC)nc(SCCCCCCC)n1 [Compound D7S7S7]	18.4
CCCCCCCCSc1nc(NCCN(CC)CC)nc(SCCCCCCC)n1 [Compound D7S7S8]	42.1
CCCCCCCCCSc1nc(NCCN(CC)CC)nc(SCCCCCCC)n1 [Compound D7S7S9]	13.5
CCCCCCCCCCSc1nc(NCCN(CC)CC)nc(SCCCCCCC)n1 [Compound D7S7S10]	1.7
CCCCCCCCCCCSc1nc(NCCN(CC)CC)nc(SCCCCCCC)n1 [Compound D7S7S11]	4.5
CCCCCCCCCCCCSc1nc(NCCN(CC)CC)nc(SCCCCCCC)n1 [Compound D7S7S12]	5.8
CCCCCCCCCCCCCCSc1nc(NCCN(CC)CC)nc(SCCCCCCC)n1 [Compound D7S7S14]	4.1
CCCCCCCCCCCCCCCSc1nc(NCCN(CC)CC)nc(SCCCCCCC)n1 [Compound D7S7S15]	5.4
CCCCCCCCCCCCCCCCSc1nc(NCCN(CC)CC)nc(SCCCCCCC)n1 [Compound D7S7S16]	10.7
CCCCCCCCCCCCCCCCCCSc1nc(NCCN(CC)CC)nc(SCCCCCCC)n1 [Compound D7S7S18]	7.1
CCCCCCCCSc1nc(NCCCCCC)nc(NCCN(CC)CC)n1 [Compound D7S8N6]	0.8
CCCCCCCCSc1nc(NCCCCCCC)nc(NCCN(CC)CC)n1 [Compound D7S8N7]	0.7
CCCCCCCCNc1nc(NCCN(CC)CC)nc(SCCCCCCCC)n1 [Compound D7S8N8]	2.5
CCCCCCCCCNc1nc(NCCN(CC)CC)nc(SCCCCCCCC)n1 [Compound D7S8N9]	9.5
CCCCCCCCCCCNc1nc(NCCN(CC)CC)nc(SCCCCCCCC)n1 [Compound D7S8N11]	9.0

Compound	Absolute mRNA transfection efficiency in HEK293 cells [%]
CCCCCCCCCCCCNc1nc(NCCN(CC)CC)nc(SCCCCCCCC)n1 [Compound D7S8N12]	9.5
CCCCCCCCCCCCCNc1nc(NCCN(CC)CC)nc(SCCCCCCCC)n1 [Compound D7S8N13]	14.2
CCCCCCCCCCCCCCCNc1nc(NCCN(CC)CC)nc(SCCCCCCCC)n1 [Compound D7S8N15]	15.7
CCCCCCCCCCCCCCCCNc1nc(NCCN(CC)CC)nc(SCCCCCCCC)n1 [Compound D7S8N16]	16.8
CCCCCCCCCCCCCCCCCCNc1nc(NCCN(CC)CC)nc(SCCCCCCCC)n1 [Compound D7S8N18]	12.8
CCCCCCCCSc1nc(NCCN(CC)CC)nc(SCCCCCCCC)n1 [Compound D7S8S8]	25.3
CCCCCCCCCSc1nc(NCCN(CC)CC)nc(SCCCCCCCC)n1 [Compound D7S8S9]	11.1
CCCCCCCCCCSc1nc(NCCN(CC)CC)nc(SCCCCCCCC)n1 [Compound D7S8S10]	7.6
CCCCCCCCCCCSc1nc(NCCN(CC)CC)nc(SCCCCCCCC)n1 [Compound D7S8S11]	3.2
CCCCCCCCCCCCSc1nc(NCCN(CC)CC)nc(SCCCCCCCC)n1 [Compound D7S8S12]	1.3
CCCCCCCCCSc1nc(NCCCCCC)nc(NCCN(CC)CC)n1 [Compound D7S9N6]	0.6
CCCCCCCCCSc1nc(NCCCCCCC)nc(NCCN(CC)CC)n1 [Compound D7S9N7]	1.6
CCCCCCCCCSc1nc(NCCCCCCCC)nc(NCCN(CC)CC)n1 [Compound D7S9N8]	11.1
CCCCCCCCCNc1nc(NCCN(CC)CC)nc(SCCCCCCCCC)n1 [Compound D7S9N9]	17.8
CCCCCCCCCCCNc1nc(NCCN(CC)CC)nc(SCCCCCCCCC)n1 [Compound D7S9N11]	36.8
CCCCCCCCCCCCNc1nc(NCCN(CC)CC)nc(SCCCCCCCCC)n1 [Compound D7S9N12]	25.6
CCCCCCCCCCCCCNc1nc(NCCN(CC)CC)nc(SCCCCCCCCC)n1 [Compound D7S9N13]	33.4
CCCCCCCCCCCCCCCNc1nc(NCCN(CC)CC)nc(SCCCCCCCCC)n1 [Compound D7S9N15]	11.7
CCCCCCCCCCCCCCCCNc1nc(NCCN(CC)CC)nc(SCCCCCCCCC)n1 [Compound D7S9N16]	10.9
CCCCCCCCCCCCCCCCCCNc1nc(NCCN(CC)CC)nc(SCCCCCCCCC)n1 [Compound D7S9N18]	21.1
CCCCCCCCCCSc1nc(NCCCCCC)nc(NCCN(CC)CC)n1 [Compound D7S10N6]	0.6
CCCCCCCCCCSc1nc(NCCCCCCC)nc(NCCN(CC)CC)n1 [Compound D7S10N7]	1.2
CCCCCCCCCCSc1nc(NCCCCCCCC)nc(NCCN(CC)CC)n1 [Compound D7S10N8]	0.3
